These results are taken from patent publication US12630498B2 (Genzyme Corporation, priority 2019, dated 2026).

The EC50 is the midpoint of the concentration-response curve. By Emax is commonly meant the maximal effect, on the per cent scale that the assay sets.

The target of assay [1] is T1, human Cystic Fibrosis Transmembrane Conductance Regulator (CFTR) harboring the ΔF508 mutation (Homo sapiens, UniProt P13569, DEL508-508).
T1 construct: expressed in transfected cells; host or cells: H441 carcinoma line (G418-selected)
T1 sequence (P13569 with tags, fused parts or gaps DEL508-508): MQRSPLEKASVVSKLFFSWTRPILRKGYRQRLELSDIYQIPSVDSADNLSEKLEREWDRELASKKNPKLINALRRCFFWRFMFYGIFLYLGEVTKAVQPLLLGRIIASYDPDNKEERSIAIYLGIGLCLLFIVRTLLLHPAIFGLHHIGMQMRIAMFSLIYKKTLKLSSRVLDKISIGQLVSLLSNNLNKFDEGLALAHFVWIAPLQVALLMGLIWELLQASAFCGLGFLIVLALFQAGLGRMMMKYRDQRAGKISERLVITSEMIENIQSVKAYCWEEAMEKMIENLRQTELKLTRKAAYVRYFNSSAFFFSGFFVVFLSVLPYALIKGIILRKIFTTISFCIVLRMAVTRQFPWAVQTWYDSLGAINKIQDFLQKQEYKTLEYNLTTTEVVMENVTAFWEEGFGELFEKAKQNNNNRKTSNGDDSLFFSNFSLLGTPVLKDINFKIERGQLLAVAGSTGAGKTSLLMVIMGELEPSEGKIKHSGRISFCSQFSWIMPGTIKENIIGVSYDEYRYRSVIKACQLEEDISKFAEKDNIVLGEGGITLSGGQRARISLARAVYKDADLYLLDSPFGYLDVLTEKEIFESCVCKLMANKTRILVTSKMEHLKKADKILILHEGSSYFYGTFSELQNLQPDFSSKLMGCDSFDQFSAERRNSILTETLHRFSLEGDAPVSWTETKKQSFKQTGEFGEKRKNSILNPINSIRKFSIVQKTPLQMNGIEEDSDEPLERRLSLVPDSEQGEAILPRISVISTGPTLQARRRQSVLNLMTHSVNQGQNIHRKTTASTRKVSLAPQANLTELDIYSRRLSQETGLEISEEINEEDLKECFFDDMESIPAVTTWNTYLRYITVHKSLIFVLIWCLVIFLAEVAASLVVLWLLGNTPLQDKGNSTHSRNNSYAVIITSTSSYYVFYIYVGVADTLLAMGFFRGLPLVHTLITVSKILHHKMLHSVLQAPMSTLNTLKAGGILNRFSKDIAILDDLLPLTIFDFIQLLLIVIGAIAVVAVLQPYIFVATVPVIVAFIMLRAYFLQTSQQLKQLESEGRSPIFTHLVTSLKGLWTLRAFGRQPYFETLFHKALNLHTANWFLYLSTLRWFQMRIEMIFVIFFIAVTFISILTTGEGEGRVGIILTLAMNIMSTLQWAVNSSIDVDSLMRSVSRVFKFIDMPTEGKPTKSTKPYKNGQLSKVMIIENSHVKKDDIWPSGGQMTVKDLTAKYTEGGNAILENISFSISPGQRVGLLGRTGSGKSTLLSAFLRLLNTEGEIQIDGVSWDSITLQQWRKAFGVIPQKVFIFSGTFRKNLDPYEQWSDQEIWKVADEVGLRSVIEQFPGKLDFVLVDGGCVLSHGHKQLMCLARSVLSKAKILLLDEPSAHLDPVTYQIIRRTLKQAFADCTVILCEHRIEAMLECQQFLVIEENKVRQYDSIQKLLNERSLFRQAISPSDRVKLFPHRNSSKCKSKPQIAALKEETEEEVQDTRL
In words: H441 cell ΔF508-CFTR-HRP cell surface assay (Emax and EC50). It counts as cell-based. To be noted: for Emax: NCI-H441, NA = Not active. The gist of the method: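 H441 and 41o- bronchial epithelial cells expressing ΔF508-CFTR with an extracellular-loop-4 HRP tag were treated with a 15-point compound series (24.5–0.001 μM) for two nights, H441 at 27° C, 41o- at 37° C with 0.0005 mg/ml doxycycline. Surface HRP luminescence read; % of maximum VX809 signal and EC50 derived.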

Assay [2] deals with T2, CFTR-mediated transepithelial chloride transport in primary human bronchial epithelial cells from a ΔF508 homozygous CF donor (Homo sapiens, UniProt P13569, DEL508-508).
T2 construct: Primary human bronchial epithelial cells from a ΔF508 homozygous CF donor; host or cells: primary CF-HBE cells, ΔF508 homozygous donor
T2 sequence (P13569 with tags, fused parts or gaps DEL508-508): as above
Description: TECC24 recording of CFTR-mediated transepithelial chloride transport in CF-HBE cells (AUC fold over DMSO). It counts as cell-based. The settings on record: test agent 10 μM, 48 hours incubation, AUC of forskolin-stimulated IEQ relative to DMSO. On the procedure: Example 316: TECC24 AUC Fold Over DMSO @ 10 uM
The effects of a test agent on CFTR-mediated transepithelial chloride transport was measured using TECC24 recording analysis. Test agents were solubilized in DMSO. Solubilized test agents were mixed with incubation medium containing DMEM/F12, Ultroser G (2%; Crescent Chemical, catalog #67042), Hyclone Fetal Clone II (2%; GE Healthcare, catalog #SH30066.02), bovine brain extract (0.25%; Lonza, catalog #CC-4098), insulin (2.5 μg/mL), IL-13 (10 ng/mL), hydrocortisone (20 nM), transferrin (2.5 μg/mL), triiodothyronine (500 nM), ethanolamine (250 nM), epinephrine (1.5 μM), phosphoethanolamine (250 nM), and retinoic acid (10 nM). Primary human bronchial epithelial cells from a ΔF508 homozygous CF donor (CF-HBE cells; from University of North Carolina Cystic Fibrosis Tissue Procurement Center), grown on Transwell HTS 24-well cell culture inserts (Costar, catalog #3378), were exposed to test agents or controls dissolved in incubation medium. The CF-HBE cells were cultured at 36.5° C. for 48 hours before TECC24 recordings were performed in the presence or absence of test agent, a positive control or vehicle (DMSO).
Following incubation, the transwell cell culture inserts containing the test agent or control-treated CF-HBE cells were loaded onto a TECC24 apparatus (TECC v7 or MTECC v2; EP Design) to record the transepithelial voltage (VT) and resistance (TEER) using 4 AgCl electrodes per well configured in current-clamp mode. The apical and basolateral bath solutions both contained (in mM) 140 NaCl, 5 KCl, 2 CaCl2), 1 MgCl2, 10 Hepes, and 10 glucose (adjusted to pH 7.4 with NaOH). To inhibit basal Na+ absorption, the ENaC inhibitor benzamil (10 μM) was added to the bath. Then, the adenylate cyclase activator, forskolin (10 μM), was added to the bath to activate CFTR. The forskolin-stimulated Cl-transport was halted by addition of CFTR inhibitor-172 (20 μM) to the bath at the end of the experiment to confirm specificity. VT and TEER recordings were digitally acquired at routine intervals using TECC or MTECC software (EP Design). VT and TEER were transformed into equivalent transepithelial Cl-current (IEQ), and the Area Under the Curve (AUC) of the IEQ time course between forskolin and CFTR inhibitor-172 addition was generated using Excel (Microsoft). Efficacy is expressed as the ratio of the test agent AUC divided by vehicle AUC. EC50s based on AUC are generated using the non-linear regression log(agonist) vs. response function in Prism software (GraphPad) with Hill Slope fixed=1.
If a test agent increased the AUC of the forskolin-stimulated IEQ relative to vehicle in CF-HBE cells, and this increase was inhibited by CFTR inhibitor-172, then the test agent was considered a CFTR corrector.

With `COC(=O)c1ccc(COc2c(C(=O)N[C@H](C(=O)O)C(C)(C)C)ccc3ccccc23)cc1` [Example 28, (S)-2-(1-((4-(methoxycarbonyl)benzyl)oxy)-2-naphthamido)-3,3-dimethylbutanoic Acid], in assay [1], the midpoint of the response, the EC50, lay at 4900 nM and the Emax was determined as 70.2%. Besides, the “TECC24 AUC fold over DMSO @10 μM” value in assay [2] was “C (“C” refers to AUC @10 uM <4)”.
In assay [1], `CC(C)(C)[C@H](NC(=O)c1ccc2ccccc2c1OCc1ccc(C#N)cc1)C(=O)O` [Example 31, (S)-2-(1-((4-cyanobenzyl)oxy)-2-naphthamido)-3,3-dimethylbutanoic Acid] gave a half-maximal effective concentration (EC50) of 8000 nM and a maximal response (Emax) of 77.1%. The “TECC24 AUC fold over DMSO @10 μM” value in assay [2] is on record as “C (“C” refers to AUC @10 uM <4)”.
In assay [1], `CC(C)(C)[C@H](NC(=O)c1ccc2ccccc2c1OCc1ccc(SC(F)(F)F)cc1)C(=O)O` [Example 35, (S)-3,3-dimethyl-2-(1-((4-((trifluoromethyl)thio)benzyl)oxy)-2-naphthamido)butanoic Acid] came in with an EC50 of 600 nM and an Emax of 86.4%. Further, in assay [2], the “TECC24 AUC fold over DMSO @10 μM” value is “A (“A” refers to AUC @10 uM >6)”.
As to `CC1(C(NC(=O)c2ccc3ccccc3c2OCc2ccc(SC(F)(F)F)cc2)C(=O)O)CCCCC1` (stereo not drawn) [Example 36, 2-(1-methylcyclohexyl)-2-(1-((4-((trifluoromethyl)thio)benzyl)oxy)-2-naphthamido)acetic Acid], in assay [1], the EC50 was 700 nM and the Emax amounted to 133%. Besides, in assay [2], the “TECC24 AUC fold over DMSO @10 μM” value is “B (“B” refers to AUC @10 uM between 4-6)”.
Taken in the same sequence, the figures for `CC(C)(C)[C@H](NC(=O)c1ccc2ccccc2c1OCc1ccc(C(F)(F)C(F)(F)F)cc1)C(=O)O` [Example 37, (S)-3,3-dimethyl-2-(1-((4-(perfluoroethyl)benzyl)oxy)-2-naphthamido)butanoic Acid] were 300 nM, 195% and “C (“C” refers to AUC @10 uM <4)”.
In the case of `CC1([C@H](NC(=O)c2ccc3cc(F)ccc3c2OCc2ccc(C(F)(F)F)cc2)C(=O)O)CCCCC1` [Example 40, (S)-2-(6-fluoro-1-((4-(trifluoromethyl)benzyl)oxy)-2-naphthamido)-2-(1-methylcyclohexyl)acetic Acid], in assay [1], a half-maximal response (EC50) required 300 nM and the Emax is 100%. In addition, the “TECC24 AUC fold over DMSO @10 μM” value in assay [2] is given as “C (“C” refers to AUC @10 uM <4)”.
Take `CC(C)(C)[C@H](NC(=O)c1ccc2ccccc2c1OCC1CC2CCC1C2)C(=O)O` (stereo partly drawn) [Example 41, (2S)-2-(1-(bicyclo[2.2.1]heptan-2-ylmethoxy)-2-naphthamido)-3,3-dimethylbutanoic Acid]: in assay [1], the midpoint of the response, the EC50, lay at 3700 nM and the maximal effect (Emax) was determined as 112%. The “TECC24 AUC fold over DMSO @10 μM” value in assay [2] is on record as “C (“C” refers to AUC @10 uM <4)”.
In assay [1], `CC(C)(C)[C@H](NC(=O)c1ccc2cc(F)ccc2c1OCC1CCCCC1)C(=O)O` [Example 45, (S)-2-(1-(cyclohexylmethoxy)-6-fluoro-2-naphthamido)-3,3-dimethylbutanoic Acid] yielded an EC50 of 1800 nM and an Emax of 94.7%. In assay [2], the “TECC24 AUC fold over DMSO @10 μM” value is “C (“C” refers to AUC @10 uM <4)”.
Taken in the same sequence, the figures for `CC(C)(C)[C@H](NC(=O)c1ccc2ccccc2c1OCc1ccc(Cl)c(Cl)c1)C(=O)O` [Example 47, (S)-2-(1-((3,4-dichlorobenzyl)oxy)-2-naphthamido)-3,3-dimethylbutanoic Acid] were 900 nM, 117% and “C (“C” refers to AUC @10 uM <4)”.
Regarding `CC1(C(NC(=O)c2ccc3ccccc3c2OCc2ccc(S(F)(F)(F)(F)F)cc2)C(=O)O)CCCCC1` (stereo not drawn) [Example 48, 2-(1-methylcyclohexyl)-2-(1-((4-(pentafluoro-16-sulfanyl)benzyl)oxy)-2-naphthamido)acetic Acid], in assay [1], the midpoint of the response, the EC50, lay at 700 nM and the Emax was 112%. Also, the “TECC24 AUC fold over DMSO @10 μM” value in assay [2] is recorded as “C (“C” refers to AUC @10 uM <4)”.
Taken in the same sequence, the figures for `CC1(C(NC(=O)c2ccc3cc(F)ccc3c2OCc2ccc(S(F)(F)(F)(F)F)cc2)C(=O)O)CCCCC1` (stereo not drawn) [Example 50, 2-(6-fluoro-1-((4-(pentafluoro-16-sulfanyl)benzyl)oxy)-2-naphthamido)-2-(1-methylcyclohexyl)acetic Acid] were 400 nM, 57.8% and “C (“C” refers to AUC @10 uM <4)”.
As to `CC(C)(C)[C@H](NC(=O)c1cc(Br)c2ccccc2c1OCc1ccc(C(F)(F)F)cc1)C(=O)O` [Example 51, (S)-2-(4-bromo-1-((4-(trifluoromethyl)benzyl)oxy)-2-naphthamido)-3,3-dimethylbutanoic Acid], in assay [1], the EC50 is 400 nM and the Emax worked out at 200%. In addition, in assay [2], the “TECC24 AUC fold over DMSO @10 μM” value was “C (“C” refers to AUC @10 uM <4)”.
In assay [1], `CC(C)(C)[C@H](NC(=O)c1ccc2cc(N)ccc2c1OCc1ccc(C(F)(F)F)cc1)C(=O)O` [Example 52, (S)-2-(6-amino-1-((4-(trifluoromethyl)benzyl)oxy)-2-naphthamido)-3,3-dimethylbutanoic Acid] had an EC50 of 7300 nM and an Emax of 91.4%. Also, the “TECC24 AUC fold over DMSO @10 μM” value in assay [2] is “C (“C” refers to AUC @10 uM <4)”.
Take `CCC(C)(C)[C@H](NC(=O)c1ccc2ccccc2c1OCc1ccc(SC(F)(F)F)cc1)C(=O)O` [Example 55, (S)-3,3-dimethyl-2-(1-((4-((trifluoromethyl)thio)benzyl)oxy)-2-naphthamido)pentanoic Acid]: in assay [1], the concentration for a half-maximal effect (EC50) came to 600 nM and the maximal effect (Emax) was 115%. Further, in assay [2], the “TECC24 AUC fold over DMSO @10 μM” value is recorded as “B (“B” refers to AUC @10 uM between 4-6)”.
Taken in the same sequence, the figures for `CC1(C(NC(=O)c2ccc3ccccc3c2OCc2ccc(C(F)(F)F)cc2)C(=O)O)CC1` (stereo not drawn) [Example 56, 2-(1-methylcyclopropyl)-2-(1-((4-(trifluoromethyl)benzyl)oxy)-2-naphthamido)acetic Acid] were 1700 nM, 127% and “C (“C” refers to AUC @10 uM <4)”.
Taken in the same sequence, the figures for `CC(C)(C)[C@H](NC(=O)c1ccc2ccccc2c1OCc1ccc(S(=O)(=O)C(F)(F)F)cc1)C(=O)O` [Example 57, (S)-3,3-dimethyl-2-(1-((4-((trifluoromethyl)sulfonyl)benzyl)oxy)-2-naphthamido)butanoic Acid] were 1500 nM, 87.9% and “C (“C” refers to AUC @10 uM <4)”.
In assay [1], `CC(C)(C)[C@H](NC(=O)c1ccc2ccccc2c1OCc1nc2ccccc2s1)C(=O)O` [Example 58, (S)-2-(1-(benzo[d]thiazol-2-ylmethoxy)-2-naphthamido)-3,3-dimethylbutanoic Acid] displayed an EC50 of 2800 nM and an Emax of 139%. In addition, the “TECC24 AUC fold over DMSO @10 μM” value in assay [2] is reported as “C (“C” refers to AUC @10 uM <4)”.
Regarding `CC(C)(C)[C@H](NC(=O)c1ccc2cc(O)ccc2c1OCc1ccc(C(F)(F)F)cc1)C(=O)O` [Example 59, (S)-2-(6-hydroxy-1-((4-(trifluoromethyl)benzyl)oxy)-2-naphthamido)-3,3-dimethylbutanoic Acid], in assay [1], the EC50 is 1900 nM and the maximal effect (Emax) was 108%. Further, the “TECC24 AUC fold over DMSO @10 μM” value in assay [2] is given as “C (“C” refers to AUC @10 uM <4)”.
Consider `CC(C)(C)[C@H](NC(=O)c1ccc2cc(F)ccc2c1OCc1nc2ccccc2s1)C(=O)O` [Example 61, (S)-2-(1-(benzo[d]thiazol-2-ylmethoxy)-6-fluoro-2-naphthamido)-3,3-dimethylbutanoic Acid], for which, in assay [1], it took 2700 nM to reach a half-maximal effect (EC50) and the Emax was determined as 132%. Further, the “TECC24 AUC fold over DMSO @10 μM” value in assay [2] was “C (“C” refers to AUC @10 uM <4)”.
